Data set [1] can be described thus: Plasma stability test of payloads (LC-MS/MS, half-life). Format: in vitro ADME. Particulars: human plasma, 37° C., time points 0-24 h, read-out: Human plasma stability T1/2 (converted). The procedure:
Stock solutions were prepared at 10 mM in DMSO for the test compound. Aliquots of the stock solutions were diluted to 0.02 mM in 0.05 M sodium phosphate buffer containing 0.5% BSA as the dosing solution. Then 10 μL of the dosing solutions were dosed into 90 μL of pre-warmed plasma (37° C.) in singlet (n=1) in 96-well assay plates to reach a final test concentration of 2 μM. The plates were kept in a 37° C. water bath for the duration of the experiment. At each time point (0, 0.25, 1, 8, 24 h), 400 μL of acetonitrile (containing internal standard) was added into corresponding wells of the assay plates. After the final time point was quenched, the assay plates were shaken on a vibrator (IKA, MTS 2/4) for 10 min (600 rpm/min) and then centrifuged at 5594 g for 15 min (Thermo Multifuge×3R). Aliquots of the supernatant were taken and analyzed by LC-MS/MS. The peak area response ratio to internal standard (PARR) of the compounds at 0.25, 1, 8, and 24 h was compared to the PARR at time zero to determine the percent of test compound remaining at each time point. Half-lives (ti/2) were calculated using Excel software, fitting to a single-phase exponential decay equation.

Another data set concerns SK-BR-3 cells. Put plainly: SK-BR-3 anti-proliferation assay for payloads (CellTiter-Glo). Format: cell-based. The conditions noted are these: Homo sapiens, free payload, 120-144 h, read-out: SKBR3. The procedure:
The cell line used in the anti-proliferation assays was SK-BR-3, a human breast, adenocarcinoma (pleural effusion) cell line. The cells were grown in McCoy's 5a Medium+10% FBS. To run the assay for payloads, the cells (40 μL, 700 cells) were added to each well in a 384-well plate and incubated for 24 hours at 37° C. with 5% CO2. Then the cells were treated with test compounds at various concentrations using HPD300, and then normalize the DMSO to 0.5%. The control wells contain cells and the medium but lack the test compounds. The plates were incubated for 120 h at 37° C. with 5% CO2. To run the assay for ADCs and some key payloads, the cells (80 μL, 1000 cells) were added to each well in a 96-well plate and incubated for twenty-four hours at 37° C. with 5% CO2. Next, the ADCs or payloads were diluted with Opti-Mem with 0.1% BSA. The cells were treated with test compounds or ADCs (20 μL) at various concentrations in appropriate cell culture medium (total volume, 0.1 mL). The final concentration of DMSO was adjusted to 0.2% and the Opti-Mem with 0.1% BSA was adjusted to 5%. The control wells contained cells and the medium but lacked the test compounds. The plates were incubated for 144 h at 37° C. with 5% CO2. CTG reagent was then added to the wells (25 μL/384-well or 100 μL/96-well). After the plates were shaken for 10 min and then incubated for 10 min at room temperature, paste the clear bottom with white back seal and record luminescence with Envision. The inhibition % was calculated according to the following equation: inhibition %=[1-(assay-blank)/(control-blank)]×100.

A further data set relates to HCT15 cells. In words: HCT15 anti-proliferation / cell killing assay (CellTiter-Glo), with or without verapamil. The conditions noted are these: for IC50: Homo sapiens. Format: cell-based, human. The procedure:
The cell line used in the anti-proliferation assays was HCT15, a human colon, colorectal carcinoma cell line. The HCT15 cells were grown in RPMI medium 1640+10% FBS. To run the assay, the cells (40 μL, 400 cells) were added to each well in a 384-well plate and incubated for twenty-four hours at 37° C. with 5% CO2. One hour before adding compounds, freshly dilute Verapamil to 0.2 mg/ml in ddH2O. Add 1 μL/well diluted Verapamil to Verapamil treatment wells and 1 μL/well ddH2O to the non-Verapamil treatment wells. Return plates to the incubator at 37° C. with 5% CO2. Then the cells were treated with test compounds at various concentrations using HPD300, and then normalize the DMSO to 0.5%. The control wells contained cells and the medium but lack the test compounds. The plates were incubated for 120 hours at 37° C. with 5% CO2. CTG reagent was then added to the wells (25 μL). After the plates were shaken for 10 min and then incubated for 10 min at room temperature, paste the clear bottom with white back seal and record luminescence with Envision. The inhibition % was calculated according to the following equation: inhibition %=[1−(assay-blank)/(control-blank)]×100.

The mark [2] stands for this setting: HCT15 cells, no verapamil, 120 h (5 days), read-out: HCT-15.
[3] abbreviates: HCT-15, HCT15 cells pre-treated with verapamil, 120 h, read-out: HCT-15 with verapamil.

Molecules are shown by their SMILES. Read-outs that look alike come from different tables or passages of the source.

Regarding `CCCCCCN(C(=O)[C@@H](NC(=O)[C@H]1CCCCN1C)[C@@H](C)CC)[C@H](C[C@@H](OCCCO)c1nc(C(=O)N[C@@H](Cc2ccc(N)c(F)c2)CC(C)(C)C(=O)O)cs1)C(C)C` (mixture of isomers) [PA22, Rac-(R)-5-(4-amino-3-fluorophenyl)-4-(2-((1S,3S)-3-((2R,3R)—N-hexyl-3-methyl-2-((S)-1-methylpiperidine-2-carboxamido)pentanamido)-1-(3-hydroxypropoxy)-4-methylpentyl)thiazole-4-carboxamido)-2,2-dimethylpentanoic acid], in data set [1], the half-life at 2 μM was 63.5 h. Besides, the IC50 in the data set on SK-BR-3 cells was 0.044 nM; in the data set on HCT15 cells (setting [2]), 0.532 nM. The “HCT-15 with verapamil (nM)” value in the data set on HCT15 cells (HCT15 cells pre-treated with verapamil, 120 h) was “Not reach”.
`CCCCCCN(C(=O)[C@@H](NC(=O)[C@H]1CCCCN1C)[C@@H](C)CC)[C@H](C[C@@H](OC(=O)NCCO)c1nc(C(=O)N[C@@H](Cc2ccc(N)c(F)c2)CC(C)(C)C(=O)O)cs1)C(C)C` (mixture of isomers) [PA24, (S)-5-(4-amino-3-fluorophenyl)-4-(2-((3RS,6SR,8SR)-3-((RS)-sec-butyl)-5-hexyl-13-hydroxy-6-isopropyl-1-((R)-1-methylpiperidin-2-yl)-1,4,10-trioxo-9-oxa-2,5,11-triazatridecan-8-yl)thiazole-4-carboxamido)-2,2-dimethylpentanoic acid]: the half-life at 2 μM in data set [1] was 43.4 h. Besides, the IC50 was 0.135 nM with SK-BR-3 cells, 0.944 nM with HCT15 cells (setting [2]) and 0.255 nM with HCT15 cells (setting [3]).
With `CCCCCCN(C(=O)[C@@H](NC(=O)[C@H]1CCCCN1C)[C@@H](C)CC)[C@H](C[C@@H](OC(C)=O)c1nc(C(=O)N[C@@H](Cc2ccc(NCCO)cc2)CC(C)(C)C(=O)O)cs1)C(C)C` (racemic) [PA14, Rac-(R)-4-(2-((1S,3S)-1-acetoxy-3-((2R,3R)—N-hexyl-3-methyl-2-((S)-1-methylpiperidine-2-carboxamido)pentanamido)-4-methylpentyl)thiazole-4-carboxamido)-acid], the half-life at 2 μM in data set [1] is 71 h. Moreover, the IC50 worked out at 0.158 nM in the data set with SK-BR-3 cells, 0.618 nM with HCT15 cells (setting [2]) and 0.147 nM with HCT15 cells (setting [3]).
As to `CCCCCCN(C(=O)[C@@H](NC(=O)[C@H]1CCCCN1C)[C@@H](C)CC)[C@H](C[C@@H](OCC)c1nc(C(=O)N[C@@H](Cc2ccc(NCCO)cc2)CC(C)(C)C(=O)O)cs1)C(C)C` (racemic) [PA15, Rac-(R)-4-(2-((1S,3S)-1-ethoxy-3-((2R,3R)—N-hexyl-3-methyl-2-((S)-1-methylpiperidine-2-carboxamido)pentanamido)-4-methylpentyl)thiazole-4-carboxamido)-acid], the half-life at 2 μM in data set [1] was 103 h. In addition, the IC50 in the data set with SK-BR-3 cells turned out to be 0.314 nM; in the data set with HCT15 cells (setting [2]) it was 1.7 nM; in the data set with HCT15 cells (setting [3]), 0.393 nM.
Take `CCCCCCN(C(=O)[C@@H](NC(=O)[C@H]1CCCCN1C)[C@@H](C)CC)[C@H](C[C@@H](OC(C)=O)c1nc(C(=O)N[C@@H](Cc2ccc(NCC(=O)O)cc2)CC(C)(C)C(=O)O)cs1)C(C)C` (racemic) [PA16, Rac-(R)-4-(2-((1S,3S)-1-acetoxy-3-((2R,3R)—N-hexyl-3-methyl-2-((S)-1-methylpiperidine-2-carboxamido)pentanamido)-4-methylpentyl)thiazole-4-carboxamido)-acid]: the half-life at 2 μM in data set [1] was 327 h. Further, the IC50 in the data set with SK-BR-3 cells was 0.019 nM; in the data set on HCT15 cells (setting [2]), 0.062 nM; with HCT15 cells (setting [3]), 0.033 nM.
Take `CCCCCCN(C(=O)[C@@H](NC(=O)[C@@]1(C)CCCN1)[C@@H](C)CC)[C@H](C[C@@H](OC(C)=O)c1nc(C(=O)N[C@@H](Cc2ccc(N)c(F)c2)CC(C)(C)C(=O)O)cs1)C(C)C` [Compound P15, reference compound]: the half-life at 2 μM in data set [1] is 15.1 h. For the same compound, the IC50 is 0.068 nM with SK-BR-3 cells, 1.66 nM with HCT15 cells (setting [2]) and 0.19 nM in the data set on HCT15 cells (setting [3]).
For `CCCCCCN(C(=O)[C@@H](NC(=O)[C@H]1CCCCN1CCO)[C@@H](C)CC)[C@H](C[C@@H](OC(C)=O)c1nc(C(=O)N[C@@H](Cc2ccc(N)cc2)CC(C)(C)C(=O)O)cs1)C(C)C` [PA7, (4S)-4-({2-[(1R,3R)-1-(acetyloxy)-3-[(2S,3S)—N-hexyl-2-{[(2R)-1-(2-hydroxyethyl)piperidin-2-yl]formamido}-3-methylpentanamido]-4-methylpentyl]-1,3-thiazol-4-yl}formamido)-5-(4-aminophenyl)-2,2-dimethylpentanoic acid], in data set [1], the half-life at 2 μM is 65.9 h. The values for the IC50 in the data set with SK-BR-3 cells, in the data set on HCT15 cells (setting [2]) and in the data set on HCT15 cells (setting [3]) were 0.038 nM, 0.122 nM and 0.037 nM, respectively.
Turning to `CCCCCCN(C(=O)[C@@H](NC(=O)[C@H]1CCCCN1CCO)[C@@H](C)CC)[C@H](C[C@@H](OCC)c1nc(C(=O)N[C@@H](Cc2ccc(N)cc2)CC(C)(C)C(=O)O)cs1)C(C)C` [PA13, (S)-5-(4-aminophenyl)-4-(2-((1R,3R)-1-ethoxy-3-((2S,3S)—N-hexyl-2-((R)-1-(2-hydroxyethyl)piperidine-2-carboxamido)-3-methylpentanamido)-4-methylpentyl)thiazole-4-carboxamido)-2,2-dimethylpentanoic acid], the half-life at 2 μM in data set [1] was 313 h. Besides, the IC50 with SK-BR-3 cells stood at 0.288 nM; in the data set with HCT15 cells (setting [2]), 1.31 nM; in the data set with HCT15 cells (setting [3]) it was 0.284 nM.
